Measurements published in US20020081733A1, “METHOD TO PREPARE DRUG-RESISTANT, NON-MALIGNANT HEMATOPOIETIC CELLS” (priority 1998, published 2002).

How the values were obtained:
[1] = tested on: CML 34^+DR^+ CFC and LTC-IC; assay: MTX sensitivity of NL and CML CFC and LTC-IC (serum-free methylcellulose assay / LTC); type: cell-based, human; conditions: increasing MTX concentrations, FIG. 2A, 2B
Experimental: (§1) FIG. 2. Drug sensitivity of untransduced cells. A) NL and CML 34^+DR^+ cells were plated in a serum-free methylcellulose assay with increasing MTX concentrations to determine the MTX sensitivity of CFC. B) NL 34^+DR^− cells (LTC-IC) and CML 34^+DR^+ (Ph^+ LTC-IC) cells were incubated for 1 week in serum-free medium and cytokines with increasing MTX concentrations and then replated in LTC for 5 weeks. The number of MTX resistant LTC-IC was determined by replating LTC derived progeny in methylcellulose without […]. C) NL and CML 34^+DR^+ cells were plated directly in methylcellulose with increasing concentrations of taxol. D) NL 34^+DR^− cells (LTC-IC) and CML 34^+DR^+ (Ph^+LTC-IC) were plated in liquid culture for 7 days with increasing concentrations of taxol and then replated in LTC.
To determine the MTX sensitivity of normal (NL) and CML CFC cells, NL and CML 34^+DR^+ cells were plated in a serum-free methylcellulose assay with increasing MTX concentrations (FIG. 2A). To determine the MTX sensitivity of NL and CML LTC-IC cells, NL 34^+DR^− cells (LTC-IC) and CML 34^+DR^+ (Ph^+ LTC-IC) cells were also incubated for I week in serum-free medium and cytokines, with increasing MTX concentrations. The cells were then replated in LTC for 5 weeks. The number of MTX resistant LTC-IC was determined by replating LTC derived progeny in methylcellulose assay without MTX (FIG. 2B).

CML and NL progenitors = assay: Taxol sensitivity of NL and CML cells (methylcellulose / liquid culture then LTC); type: cell-based, human; conditions: increasing concentrations of taxol; FIG. 2C, 2D
Experimental: as §1
To determine the taxol sensitivity of NL and CML cells, NL and CML 34^+DR^+ and 34^+DR^− cells were plated either in liquid culture for 7 days with increasing concentrations of taxol and then replated in LTC (FIG. 2D). NL and CML cells were also plated directly in methylcellulose with increasing concentrations of taxol (FIG. 2C).

SMILES	MTX sensitivity of CML 34+DR+ CFC and LTC-IC relative to NL 34+DR+ CFC and NL 34+DR− LTC-IC [1]	taxol sensitivity of CML versus NL progenitors (CML and NL progenitors)
CN(Cc1cnc2nc(N)nc(N)c2n1)c1ccc(C(=O)N[C@@H](CCC(=O)O)C(=O)O)cc1 [MTX, methotrexate]	at least equally sensitive	
CC(=O)O[C@H]1C(=O)[C@@]2(C)[C@H]([C@H](OC(=O)c3ccccc3)[C@]3(O)C[C@H](OC(=O)[C@H](O)[C@@H](NC(=O)c4ccccc4)c4ccccc4)C(C)=C1C3(C)C)[C@]1(OC(C)=O)CO[C@@H]1C[C@@H]2O [taxol]		equal sensitivity
